Source: patent publication US12617762B2, “Carboxy derivatives with antiinflamatory properties” (Sitryx Therapeutics Limited, priority 2019, dated 2026)
Read-outs that look alike come from different tables or passages of the source. Blank lines part the entries; values can stand above or below the compound they belong to.

How the values were obtained:
[1] = Hepatocyte stability assay, human; type: in vitro ADME; conditions: human, hepatocytes; for hepatocyte CLint at 10 μM: Hepatocyte stability Clint; for half-life at 10 μM: Hepatocyte stability T½
Outline: (§1)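 Cells and buffer-only plates are preincubated 10 min at 37° C; 10 μM test compound is then added to hepatocytes (0.5×10^6 cells/mL) and sampled to 60 min. Aliquots are crashed into acetonitrile, spun, and measured by LC-MS/MS to calculate intrinsic clearance from the decline of parent.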

[2] = Hepatocyte stability assay, mouse; type: in vitro ADME; conditions: mouse, hepatocytes; for hepatocyte CLint at 10 μM: Hepatocyte stability Clint; for half-life at 10 μM: Hepatocyte stability T½
Outline: as §1

[3] = tested on: IL-1β cytokine output from THP-1s; experiment: THP-1 AlphaLISA IL-1β cytokine inhibition assay; type: cell-based; conditions: Homo sapiens, THP-1, differentiated THP-1 cells, LPS then nigericin
Outline: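 THP-1 cells differentiated with PMA for 72 h, pre-incubated with compound 30 min, then LPS-primed 24 h and Nigericin-stimulated 1 h (37° C./5% CO2). Supernatant IL-1β measured by AlphaLISA; percentage inhibition normalised to +LPS (high) and −LPS (low) plate controls.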

[4] = tested on: IL-6 cytokine output from THP-1s; experiment: THP-1 AlphaLISA IL-6 cytokine inhibition assay; type: cell-based; conditions: Homo sapiens, LPS then nigericin
Method: The cytokine inhibition profiles of compounds of formula (I) were determined in a differentiated THP-1 cell assay. All assays were performed in RPMI-1640 growth medium (Gibco), supplemented with 10% fetal bovine serum (FBS; Gibco), 1% penicillin-streptomycin and 1% sodium pyruvate unless specified otherwise. The IL-1β cytokine inhibition assay was run in a background of differentiated THP-1 cells as described below. All reagents described were from Sigma-Aldrich unless specified otherwise. Compounds were prepared as 10 mM DMSO stocks.
THP-1 cells were expanded as a suspension up to 80% confluence in appropriate growth medium. Cells were harvested, suspended, and treated with an appropriate concentration of phorbol 12-myristate 13-acetate (PMA) over a 72 hr period (37° C./5% CO2).
Following 72 hrs of THP-1 cell incubation, cellular medium was removed and replaced with fresh growth media containing 1% of FBS. Working concentrations of compounds were prepared separately in 10% FBS treated growth medium and pre-incubated with the cells for 30 minutes (37° C./5% CO2). Following the 30 minute compound pre-incubation, THP-1s were treated with an appropriate concentration of LPS and the cells were subsequently incubated for a 24 hr period (37° C./5% CO2). An appropriate final concentration of Nigericin was then dispensed into the THP-1 plates and incubated for 1 hour (37° C./5% CO2) before THP-1 supernatants were harvested and collected in separate polypropylene 96-well holding plates.
Reagents from an IL-1β and IL-6 commercial kit (Perkin Elmer) were prepared and run according to the manufacturer's instructions. Subsequently, fluorescence signal detection in a microplate reader was measured (EnVision® Multilabel Reader, Perkin Elmer).
Percentage inhibition was calculated per cytokine by normalising the sample data to the high and low controls used within each plate (+/− LPS respectively).

[5] = tested on: NRF2 (nuclear factor erythroid 2-related factor 2); experiment: NRF2 +/-GSH activation assay (DiscoverX PathHunter NRF2 translocation kit, U2OS cells); type: cell-based; conditions: for NRF2 activation +GSH Emax / NRF2 activation −GSH Emax: normalised to DMF high control
Outline: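 U2OS PathHunter eXpress cells, 24 h post-plating, treated with compound ±GSH (+GSH arm: 30 min compound–GSH pre-incubation, 6 mM working GSH), then 6 h at 37 °C. NRF2 nuclear translocation read by enzyme-fragment-complementation chemiluminescence; % activation normalised to DMF high and untreated low controls.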

[6] = THP-1, differentiated THP-1 cells
[7] = +GSH, 30 minute compound-GSH pre-incubation, read-out: NRF2 activation +GSH EC50
[8] = −GSH, U2OS PathHunter cells, 6 hours compound treatment, read-out: NRF2 activation −GSH EC50

Structure (SMILES): C=C(Cc1nc(C2(c3ccc(OC(F)(F)C(F)F)cc3)CC2)no1)C(=O)O [Example 82, 2-((3-(1-(4-(1,1,2,2-tetrafluoroethoxy)phenyl)cyclopropyl)-1,2,4-oxadiazol-5-yl)methyl)acrylic acid]
hepatocyte CLint at 10 μM [1]: < 3 µL/min/1e6 cells
half-life at 10 μM [1]: > 460 min
hepatocyte CLint at 10 μM [2]: 30 µL/min/1e6 cells
half-life at 10 μM [2]: 58 min
IC50 [3]: 14.5 µM
IC50 [4, 6]: 20.7 µM

Structure (SMILES): C=C(Cc1noc(C(F)(F)c2ccc(Br)cc2)n1)C(=O)O [Example 85, 2-((5-((4-bromophenyl)difluoromethyl)-1,2,4-oxadiazol-3-yl)methyl)acrylic acid]
EC50 [5, 7]: 34.7 µM
NRF2 activation +GSH Emax ([5]; +GSH): 208%
EC50 [5, 8]: 21.6 µM
NRF2 activation −GSH Emax ([5]; −GSH): 282%
hepatocyte CLint at 10 μM [1]: 20 µL/min/1e6 cells
half-life at 10 μM [1]: 77 min
hepatocyte CLint at 10 μM [2]: 131 µL/min/1e6 cells
half-life at 10 μM [2]: 13 min
IC50 [3]: 13.6 µM
IC50 ([4]; differentiated THP-1 cells): 18.5 µM

Structure (SMILES): C=C(Cc1nc([C@@H](C)CCCCCC)no1)C(=O)O [Example 43, (S)-2-((3-(octan-2-yl)-1,2,4-oxadiazol-5-yl)methyl)acrylic acid]
EC50 [5, 7]: 27.4 µM
NRF2 activation +GSH Emax ([5]; +GSH): 81%
EC50 [5, 8]: 30.4 µM
NRF2 activation −GSH Emax ([5]; −GSH): 166%
hepatocyte CLint at 10 μM [1]: 33 µL/min/1e6 cells
half-life at 10 μM [1]: 42 min
hepatocyte CLint at 10 μM [2]: 142 µL/min/1e6 cells
half-life at 10 μM [2]: 12 min
IC50 [3]: 36.9 µM
IC50 [4, 6]: 23.1 µM

Structure (SMILES): C=C(Cc1nc(Cc2ccc(OC(F)(F)C(F)F)cc2)no1)C(=O)O [Example 81, 2-((3-(4-(1,1,2,2-tetrafluoroethoxy)benzyl)-1,2,4-oxadiazol-5-yl)methyl)acrylic acid]
hepatocyte CLint at 10 μM [1]: < 3 µL/min/1e6 cells
half-life at 10 μM [1]: > 460 min
hepatocyte CLint at 10 μM [2]: 94 µL/min/1e6 cells
half-life at 10 μM [2]: 18 min
IC50 [3]: 22 µM
IC50 [4, 6]: 12.8 µM

Structure (SMILES): C=C(Cc1noc(C(F)(F)c2ccc(Cl)cc2)n1)C(=O)O [Example 84, 2-((5-((4-chlorophenyl)difluoromethyl)-1,2,4-oxadiazol-3-yl)methyl)acrylic acid]
hepatocyte CLint at 10 μM [1]: 14 µL/min/1e6 cells
half-life at 10 μM [1]: 115 min
hepatocyte CLint at 10 μM [2]: 83 µL/min/1e6 cells
half-life at 10 μM [2]: 21 min
IC50 [3]: 39 µM
IC50 ([4]; differentiated THP-1 cells): 23.1 µM

Second part, led by results:

EC50 [5, 7]: 48.8 µM
EC50 [5, 8]: 38.9 µM
hepatocyte CLint at 10 μM [1]: > 460 µL/min/1e6 cells
half-life at 10 μM [1]: < 3 min
hepatocyte CLint at 10 μM [2]: > 460 µL/min/1e6 cells
half-life at 10 μM [2]: < 3 min
IC50 [3]: > 31.6 µM
IC50 ([4]; differentiated THP-1 cells): 9.8 µM
Structure (SMILES): C=C(C(=O)O)C(OC)c1nc(CCCCCCCC)no1 (stereo not drawn) [Example 110, 2-(methoxy(3-octyl-1,2,4-oxadiazol-5-yl)methyl)acrylic acid]
NRF2 activation +GSH Emax ([5]; +GSH): 132%
NRF2 activation −GSH Emax ([5]; −GSH): 153%

hepatocyte CLint at 10 μM [1]: 31 µL/min/1e6 cells
half-life at 10 μM [1]: 45 min
hepatocyte CLint at 10 μM [2]: 159 µL/min/1e6 cells
half-life at 10 μM [2]: 8 min
IC50 [3]: 13.2 µM
IC50 ([4]; differentiated THP-1 cells): 17.9 µM
Structure (SMILES): C=C(Cc1nc(C2(c3cc(F)c(Cl)c(F)c3)CC2)no1)C(=O)O [Example 135, 2-((3-(1-(4-chloro-3,5-difluorophenyl)cyclopropyl)-1,2,4-oxadiazol-5-yl)methyl)acrylic acid]

hepatocyte CLint at 10 μM [1]: 161 µL/min/1e6 cells
half-life at 10 μM [1]: 8 min
hepatocyte CLint at 10 μM [2]: > 460 µL/min/1e6 cells
half-life at 10 μM [2]: < 3 min
IC50 [3]: 9.5 µM
IC50 ([4]; differentiated THP-1 cells): 8.4 µM
Structure (SMILES): C=C(Cc1nc(CCCCCCCC)c(C)o1)C(=O)O [Example 107, 2-((5-methyl-4-octyloxazol-2-yl)methyl)acrylic acid]

hepatocyte CLint at 10 μM [1]: 44 µL/min/1e6 cells
half-life at 10 μM [1]: 32 min
hepatocyte CLint at 10 μM [2]: 79 µL/min/1e6 cells
half-life at 10 μM [2]: 16 min
IC50 [3]: 2.9 µM
IC50 ([4]; differentiated THP-1 cells): 3.9 µM
Structure (SMILES): C=C(Cc1nc(C2(c3ccc(C(F)(F)F)c(Cl)c3)CC2)no1)C(=O)O [Example 136, 2-((3-(1-(3-chloro-4-(trifluoromethyl)phenyl)cyclopropyl)-1,2,4-oxadiazol-5-yl)methyl)acrylic acid]
